Structures can show the parent of a compound that is named as a salt.
Columns and labels:
[1] = system: MGO-AGEs-induced ROS in THP-1 monocytes; experiment: Anti-oxidation activity, DCFH-DA assay of MGO-AGEs-mediated ROS in monocytes; format: cell-based, human; conditions: for ROS (DCF fluorescence) in MGO-AGEs-treated monocytes: 100 μM (maximum inhibition), MGO-AGEs 50 μg/mL, 24 h
Protocol: Anti-oxidation activity: The measurement of effect of derivatives on AGEs-mediated ROS was based on the previously reported protocol of Soumyarani and colleagues with slight amendments. Initially, 1×10^6 monocytes/mL were loaded in sterile 96-well flat bottom black fluorescent plate, and pre-incubated with DCFH-DA (10 μM; Sigma-Aldrich Chemical Corporation, St. Louis, Missouri, USA) for 45 min at 37° C. Followed by the incubation, antiglycating, non-toxic carbazole-linked triazole derivatives (10, 30, 50, and 100 μM) were added to the wells for 1 h before co-treatment of cells with MGO-AGEs (50 μg/mL) for next 24 h. Next, the fluorometric measurement of converted DCFH into oxidized DCF product was carried out via spectrofluorimeter (Varioskanmicroplate reader, Thermo Fisher Scientific, USA) using 485 nm excitation and 520 nm emission wavelengths. Various controls were plated in each experiment. Wells containing culture RPMI with MGO-AGEs (50 μg/mL) and H2O2 ([…]) served as positive controls, while cells containing BSA were taken as negative control.

[2] = system: MGO-mediated BSA glycation; experiment: In vitro antiglycation activity, MGO-BSA glycation assay (fluorescence); format: biochemical, bovine; conditions: for IC50 / % inhibition of MGO-BSA glycation: BSA 10 mg/mL, MGO 0.1 M, 24 h, 37° C.; for IC50: read-out: IC50 antiglycation, MGO-BSA model; for % inhibition of MGO-BSA glycation: compounds at 1 mM
Protocol: In vitro antiglycation activity: The MGO-BSA assay was performed as per optimized protocol of Jahan, H. et al with slight modifications. Initially, the antiglycation activity of parent compound carbazole (1), and carbazole-linked 1,2,3 triazoles 2-16 were identified at 1 mM using MGO-BSA model. […] BSA (10 mg/mL) incubated with MGO (0.1 M) for 24 h at 37° C. using phosphate-azide buffer (0.1 mM), served as a positive control. The wells with BSA only were taken as negative control. Whereas, rutin and quercetin were used as standard antiglycation agents. After 24 h of incubation, the fluorescence of each well was measured by using microplate reader (Varioskan lux, Thermo Fisher Scientific, 319 Scientific, USA) at 355 nm excitation, and 460 nm emission.
The % inhibition of MGO-BSA-mediated by carbazole-triazole derivatives was quantified by using the following formula: […]
The IC50 of active antiglycation compounds were identified by using EZ-FIT Enzyme Kinetics Program (Perrella Scientific Inc., Amherst, USA).

[3] = system: HepG2 cell line; experiment: Cytotoxicity, MTT assay in hepatocytes; format: cell-based, human; conditions: 24 h
Protocol: (§1) Cytotoxicity analysis: The cytotoxic profile of the compounds was determined by using the MTT assay in hepatocytes (HepG2 cell line), and WST-1 assay in human monocytes (THP-1 cell line) as per the manufacturer's protocols. […] Doxorubicin treated cells were used as a positive control, while cells with culture medium served as negative control. Wells with culture medium served as a blank. Followed by the incubation, 20 μL of MTT were added in each well. […] The absorbance was measured by using 540, and 450 nm, respectively ([…] reader, Thermo Fisher, 319 Scientific, USA).

[4] = system: THP-1 cell line; experiment: Cytotoxicity, WST-1 assay in human monocytes; format: cell-based; conditions: 24 h
Protocol: as §1

O=C(Cn1cc(Cn2c3ccccc3c3ccccc32)nn1)c1ccccc1 [Compound 2, 2-(4-((9H-Carbazole-9-yl)methyl)-1H-1,2,3-triazole-1-y1)-1-phenylethan-1-one]
antioxidant activity / ROS production inhibition (in words) ([1]; MGO-AGEs 50 μg/mL-treated THP-1 monocytes): inactive | antiglycation activity in MGO-BSA model (in words) [2]: weak potential | IC50 [2]: 797 ± 7 µM | % inhibition of MGO-BSA glycation [2]: 58%

Cc1ccccc1C(=O)Cn1cc(Cn2c3ccccc3c3ccccc32)nn1 [Compound 7, 2-(4-((9H-Carbazole-9-yl)methyl)-1H-1,2,3-triazole-1-y1)-1-(o-tolyl)ethan-1-one]
% Inhibition ± SD Hep-G2 ([3]; 1 μM): 12.3 ± 3.7% | % Inhibition ± SD Hep-G2 ([3]; 10 μM): 21.8 ± 4.7% | % Inhibition ± SD Hep-G2 ([3]; 30 μM): 21.8 ± 1.5% | % Inhibition ± SD Hep-G2 ([3]; 50 μM): 41.1 ± 3.5% | % Inhibition ± SD Hep-G2 ([3]; 100 μM): 50.3 ± 3.9% | % Inhibition ± SD Hep-G2 ([3]; 250 μM): 59.8 ± 15.5% | % Inhibition ± SD Hep-G2 ([3]; 500 μM): 78.4 ± 2.2% | antiglycation activity in MGO-BSA model (in words) [2]: good activity | IC50 [2]: 275 ± 5 µM | % inhibition of MGO-BSA glycation [2]: 72% | % Inhibition ± SD THP-1 ([4]; 1 μM): 21 ± 8.8% | % Inhibition ± SD THP-1 ([4]; 10 μM): 27 ± 4.2% | % Inhibition ± SD THP-1 ([4]; 30 μM): 34.6 ± 6.5% | % Inhibition ± SD THP-1 ([4]; 50 μM): 32.1 ± 0.4% | % Inhibition ± SD THP-1 ([4]; 100 μM): 50.7 ± 5.3% | % Inhibition ± SD THP-1 ([4]; 250 μM): 80.8 ± 5.1% | % Inhibition ± SD THP-1 ([4]; 500 μM): 79.5 ± 5.8%

Cc1cccc(C(=O)Cn2cc(Cn3c4ccccc4c4ccccc43)nn2)c1 [Compound 8, 2-(4-((9H-Carbazole-9-yl)methyl)-1H-1,2,3-triazole-1-y1)-1-(m-tolyl)ethan-1-one]
% Inhibition ± SD Hep-G2 ([3]; 1 μM): 6.4 ± 2.2% | % Inhibition ± SD Hep-G2 ([3]; 10 μM): 8.7 ± 4.8% | % Inhibition ± SD Hep-G2 ([3]; 30 μM): 47.3 ± 2.2% | % Inhibition ± SD Hep-G2 ([3]; 50 μM): 54.5 ± 0.7% | % Inhibition ± SD Hep-G2 ([3]; 100 μM): 66.9 ± 1.9% | % Inhibition ± SD Hep-G2 ([3]; 250 μM): 74.1 ± 1.9% | % Inhibition ± SD Hep-G2 ([3]; 500 μM): 86.7 ± 5.8% | antiglycation activity in MGO-BSA model (in words) [2]: good activity | IC50 [2]: 130 ± 10 µM | % inhibition of MGO-BSA glycation [2]: 79% | % Inhibition ± SD THP-1 ([4]; 1 μM): 35.5 ± 1.1% | % Inhibition ± SD THP-1 ([4]; 10 μM): 42.1 ± 0.4% | % Inhibition ± SD THP-1 ([4]; 30 μM): 43 ± 4.3% | % Inhibition ± SD THP-1 ([4]; 50 μM): 43.9 ± 0.7% | % Inhibition ± SD THP-1 ([4]; 100 μM): 46.7 ± 2.0% | % Inhibition ± SD THP-1 ([4]; 250 μM): 73.6 ± 1.9% | % Inhibition ± SD THP-1 ([4]; 500 μM): 99.5 ± 0.3%

O=C(Cn1cc(Cn2c3ccccc3c3ccccc32)nn1)c1cccc([N+](=O)[O-])c1 [Compound 11, 2-(4-((9H-Carbazole-9-yl)methyl)-1H-1,2,3-triazole-1-y1)-1-(3-nitrophenyl)ethan-1-one]
ROS (DCF fluorescence) in MGO-AGEs-treated monocytes [1]: 9.06 RFU | antiglycation activity in MGO-BSA model (in words) [2]: good activity | IC50 [2]: 147 ± 10 µM | % inhibition of MGO-BSA glycation [2]: 75.7%

c1ccc2c(c1)c1ccccc1n2Cc1cn(Cc2ccc(Cn3cc(Cn4c5ccccc5c5ccccc54)nn3)cc2)nn1 [Compound 15, 1,4-Bis ((4-((9H-carbazol-9-yl)methyl)-1H-1,2,3-triazol-1yl)methyl) benzene]
ROS (DCF fluorescence) in MGO-AGEs-treated monocytes [1]: 10.6 RFU | antiglycation activity in MGO-BSA model (in words) [2]: good activity | IC50 [2]: 333 ± 10 µM | % inhibition of MGO-BSA glycation [2]: 71%

COc1cccc2c1C(=O)c1c(O)c3c(c(O)c1C2=O)C[C@@](O)(C(=O)CO)C[C@@H]3OC1C[C@H](N)[C@H](O)[C@H](C)O1 (stereo partly drawn) [Doxorubicin, (7S,9S)-7-[(4S,5S,6S)-4-amino-5-hydroxy-6-methyloxan-2-yl]oxy-6,9,11-trihydroxy-9-(2-hydroxyacetyl)-4-methoxy-8,10-dihydro-7H-tetracene-5,12-dione; hydrochlorid, reference compound]
inhibition at 1 µM ([3]; Homo sapiens, HepG2, 1 μM, read-out: % Inhibition ± SD Hep-G2): 30.4 ± 5.3% | inhibition at 10 µM ([3]; Homo sapiens, HepG2, 10 μM, read-out: % Inhibition ± SD Hep-G2): 28.3 ± 4.8% | inhibition at 30 µM ([3]; Homo sapiens, HepG2, 30 μM, read-out: % Inhibition ± SD Hep-G2): 64 ± 0.4% | inhibition at 50 µM ([3]; Homo sapiens, HepG2, 50 μM, read-out: % Inhibition ± SD Hep-G2): 58 ± 2.4% | inhibition at 100 µM ([3]; Homo sapiens, HepG2, 100 μM, read-out: % Inhibition ± SD Hep-G2): 62.6 ± 0.2% | inhibition at 250 µM ([3]; Homo sapiens, HepG2, 250 μM, read-out: % Inhibition ± SD Hep-G2): 69.8 ± 10% | inhibition at 500 µM ([3]; Homo sapiens, HepG2, 500 μM, read-out: % Inhibition ± SD Hep-G2): 87.1 ± 2.2% | inhibition at 1 µM ([4]; Homo sapiens, THP-1, 1 μM, read-out: % Inhibition ± SD THP-1): 34.2% | inhibition at 10 µM ([4]; Homo sapiens, THP-1, 10 μM, read-out: % Inhibition ± SD THP-1): 60.2 ± 0.6% | inhibition at 30 µM ([4]; Homo sapiens, THP-1, 30 μM, read-out: % Inhibition ± SD THP-1): 63.2 ± 0.4% | inhibition at 50 µM ([4]; Homo sapiens, THP-1, 50 μM, read-out: % Inhibition ± SD THP-1): 64.5 ± 2.4% | inhibition at 100 µM ([4]; Homo sapiens, THP-1, 100 μM, read-out: % Inhibition ± SD THP-1): 67.3 ± 0.2% | inhibition at 250 µM ([4]; Homo sapiens, THP-1, 250 μM, read-out: % Inhibition ± SD THP-1): 76.4 ± 10% | inhibition at 500 µM ([4]; Homo sapiens, THP-1, 500 μM, read-out: % Inhibition ± SD THP-1): 94.3 ± 2.3%

c1ccc2c(c1)[nH]c1ccccc12 [carbazole]
% inhibition of MGO-BSA glycation [2]: 36.7%

From US11925622B2, “Role of novel carbazole linked 1, 2, 3- triazole analogs in alleviating methylglyoxal-mediated late diabetic vascular complications” (priority 2021, dated 2024)
